The source of these data is patent US20150302167A1, “SYSTEM AND METHOD FOR DEVELOPMENT OF THERAPEUTIC SOLUTIONS” (CELLWORKS RESEARCH INDIA PRIVATE LIMITED, priority 2012, published 2015).

Assay [1] can be described thus: Published clinical trial data of RA drugs: ACR20/ACR50/ACR70 response, drug vs placebo. The format is in vivo, human. Particulars: for ACR20 Diff. / ACR50 Diff. / ACR70 Diff.: Type: Diff. (drug minus placebo), * significant difference > 15%; for Highest Significant Clinical Disease Remission Score: highest ACR level with significant difference > 15% over placebo. From the text:
In another embodiment, American College of Rheumatoid (ACR) scoring system and DAS28 scoring system are used to determine the extent of improvement in the RA disease symptoms on treatment with a drug.
In another embodiment, the ACR scoring system involves three main scores: ACR20 score pertaining to 20% improvement in the disease, ACR50 score pertaining to 50% improvement in the disease and ACR70 score pertaining to 70% improvement in the disease. Clinically, the calculation of the ACR score is dependent on inputs from a patient Health Assessment Questionnaire (HAQ) and analysis of the percentage improvement in the RA disease phenotypes. […]

The conditions of assay [2]: Type: Drug; published clinical trial data; cited from earlier work.

With `CN(Cc1cnc2nc(N)nc(N)c2n1)c1ccc(C(=O)N[C@@H](CCC(=O)O)C(=O)O)cc1` [METHOTREXATE], in assay [1], the “ACR20 Diff.” value was found to be 20%, the “ACR50 Diff.” value is 15* %, the “ACR70 Diff.” value is listed as 5% and the “Highest Significant Clinical Disease Remission Score” value is listed as “ACR50 (ACR50 score pertaining to 50% improvement in the disease)”. For the same molecule, in assay [2], the ACR20 is 46%, the ACR50 was 23% and the ACR70 is recorded as 9%.

As for `C[C@@H]1CCN(C(=O)CC#N)C[C@@H]1N(C)c1ncnc2[nH]ccc12` [TOFACITINIB], in assay [1], the “ACR20 Diff.” value came out at 66.5%, the “ACR50 Diff.” value was found to be 57.7%, the “ACR70 Diff.” value is 20* % and the “Highest Significant Clinical Disease Remission Score” value is “ACR70 (ACR70 score pertaining to 70% improvement in the disease)”.

With ANAKINRA, in assay [1], the “ACR20 Diff.” value was 16* %, the “ACR50 Diff.” value is 9%, the “ACR70 Diff.” value amounted to 4% and the “Highest Significant Clinical Disease Remission Score” value is given as “ACR20 (ACR20 score pertaining to 20% improvement in the disease)”. For the same molecule, in assay [2], the ACR20 is 38%, the ACR50 is listed as 17% and the ACR70 is reported as 6%.

Regarding DENOSUMAB, in assay [1], the “ACR20 Diff.” value was below 0%, the “ACR50 Diff.” value is given as below 0%, the “ACR70 Diff.” value was below 0% and the “Highest Significant Clinical Disease Remission Score” value is listed as “Non”. In addition, in assay [2], the ACR20 is listed as 23%, the ACR50 is given as 9% and the ACR70 was 1%.

As for ETANERCEPT, in assay [1], the “ACR20 Diff.” value is 15%, the “ACR50 Diff.” value was 29%, the “ACR70 Diff.” value is listed as 28* % and the “Highest Significant Clinical Disease Remission Score” value was “ACR70 (ACR70 score pertaining to 70% improvement in the disease)”. In addition, in assay [2], the ACR20 was 86%, the ACR50 was 71% and the ACR70 is 49%.

Turning to RITUXIMAB, in assay [1], the “ACR20 Diff.” value came to 26%, the “ACR50 Diff.” value is 21%, the “ACR70 Diff.” value was 15* % and the “Highest Significant Clinical Disease Remission Score” value is listed as “ACR70 (ACR70 score pertaining to 70% improvement in the disease)”. Also, in assay [2], the ACR20 is recorded as 54%, the ACR50 was 34% and the ACR70 is 20%.

As to SECUKINUMAB, in assay [1], the “ACR20 Diff.” value is listed as 23* %, the “ACR50 Diff.” value is listed as 12%, the “ACR70 Diff.” value was found to be 0% and the “Highest Significant Clinical Disease Remission Score” value is on record as “ACR20 (ACR20 score pertaining to 20% improvement in the disease)”. For the same molecule, in assay [2], the ACR20 was 54%, the ACR50 is on record as 27% and the ACR70 was 12%.

On to TOCILIZUMAB, for which, in assay [1], the “ACR20 Diff.” value is 33%, the “ACR50 Diff.” value is given as 24%, the “ACR70 Diff.” value is listed as 21* % and the “Highest Significant Clinical Disease Remission Score” value is listed as “ACR70 (ACR70 score pertaining to 70% improvement in the disease)”. In assay [2], the ACR20 is listed as 74%, the ACR50 is on record as 53% and the ACR70 was 37%.

B1: AMG714: RA drug with published clinical trial data, listed among various approved drugs (antibody, chains of the INN, looked up, V domains shown)
VH: EVQLVQSGAEVKKPGESLKISCKVSGYFFTTYWIGWVRQMPGKGLEYMGIIYPGDSDTRYSPSFQGQVTISADKSISTAYLQWSSLKASDTAMYYCARGGNWNCFDYWGQGTLVTVSS
VL: EIVLTQSPGTLSLSPGERATLSCRASQSVSSSYLAWYQQKPGQAPRLLIYGASRRATGIPDRFSGSGSGTDFTLTISRLEPEDFAVYYCQRYGSSHTFGQGTKLEIS
Take B1: in assay [1], the “ACR20 Diff.” value was 36* %, the “ACR50 Diff.” value was determined as 0%, the “ACR70 Diff.” value is given as 0% and the “Highest Significant Clinical Disease Remission Score” value is listed as “ACR20 (ACR20 score pertaining to 20% improvement in the disease)”. In assay [2], the ACR20 is on record as 62%, the ACR50 is 0% and the ACR70 was 0%.
